According to patent US10954271B2, “Anti-microbial peptides” (priority 2014, dated 2021):
Values after ≈ are worked out from the molar mass of the structure shown. Positions of bridges follow the written chain, without caps; N, C: chain ends. Non-standard residues stand in square brackets, D forms with d. Residues, ends and D or L forms follow the SMILES beside them. d2Nal = N[C@H](Cc1ccc2ccccc2c1)C(=O)O; Nle = CCCC[C@H](N)C(=O)O

Assays:
[1] = test system: Gram-positive and Gram-negative bacteria; assay: Membrane disruption and cell agglutination assessed via microscopy; format: cell-based
Method: (§1) Further, a set of the anti-microbial peptides described herein were tested for their anti-microbial activity on both Gram-positive and Gram-negative bacteria. […] Unexpectedly, it was further observed that the C-terminal residues (denoted by bold font) selectively target gram-negative or gram-positive bacteria, as indicated.
(§2) Anti-microbial activity is reported as the concentration needed to inhibit 50% of bacterial division (ICso, a standard used in the AMP field). […] In contrast, Opt 3-5 have a Phe for Pro substitution in the C-terminal di-peptide, which produces relatively specificity for Gram-negative organisms (e.g. E. coli). Melittin is a cationic-hydrophobic AMP that served as anti-microbial positive control. Agglutination, an attribute assisting in the clearance of bacterial cells during infection, was assessed via microscopy, and was present with all five AMPs.
(§3) (1) Microscopy. Bacteria can be treated with dilutions of AMPs were directly analyzed via microscopy for membrane disruption phenotypes, including cell agglutination, cell lysis, and cell elongation/septum disruption. Cells can be also monitored for septum inhibition and elongation through use of the membrane dye FM5-95 and DAPI. Additionally the cells can be imaged and stained with the Life Technologies LIVE/DEAD® BacLight™ Bacterial Viability Kit For killing kinetics of the anti-microbial peptides.
(2) Agglutination and Protein Aggregation. Using the antimicrobial 96 well assay described above, imaging of the 96 well plate and can provide a method for the determination of the MAC (minimum agglutination concentration) for the bacteria, as described. Torrent et al., PLoS Pathogens 8(11): e1003005 (2012).

E. coli [2] = assay: Anti-microbial activity, concentration needed to inhibit 50% of bacterial division (IC50); format: cell-based; conditions: for relative specificity Gram-positive versus Gram-negative: from IC50 against E. coli and B. subtilis, Table 1
Method: as §1, §2

[3] = test system: Gram-positive and Gram-negative bacteria; assay: Non-membrane activity (mode of action: septum inhibition, protein aggregation, cell division); format: cell-based
Method: as §1
Core sequences were cyclized to enhance druggability and anti-microbial activity. Multiple cationic residues increased binding to anionic membrane and intracellular structures. […] The C-terminal di-peptides in these AMPs were used for their ability to enhance oral activity in peptides. It was discovered that they also directed relative anti-microbial activity towards either Gram-positive or negative organisms (Table 1 and FIG. 5). These AMPs appear to have multiple mechanisms of action (Table 1), potentially mediated by specific binding to the bacterial membrane, and their intracellular accumulation (data not shown). In essence, these AMPs are a form of combination therapy.
as §3

[4] = normal beagles (n=4), 5 days of 5× therapeutic dose
[5] = orally administered, canines (beagles)
Excerpt: We further conducted a preliminary study in a large animal canine model to assess cardiovascular and hematologic safety and clearance of the peptide TCAM207 (SEQ NO: 209) from plasma over a multiple day dosing. Male and female purpose bred beagles were randomized to treatment and instrumented with Holter 9 lead electrocardiograph (ECG) jackets and non-invasive oscillographic paw blood pressure monitoring (emkaPAC 4G telemetry). ECG and BP signals were sampled at 500 Hz using GLP compliant software (IOX, EMKA). ECG signals were saved continuously and blood pressure determined hourly. Blood samples were taken before and after 14 days of SC or oral drug administration for complete chemistry panel and CBC analysis. Samples were taken 1, 2, 4, 8, 12, and 24 hours after drug administration on days 1 and 5 for assay of plasma IIP to assess PK profile. After a 1-2 week washout, dogs were randomized to the other arm of the study.

B. subtilis = assay: Anti-microbial activity, concentration needed to inhibit 50% of bacterial division (IC50); format: cell-based
Method: as §1, §2

M. smegmatis = M. smegmatis adhesion / anti-biofilm assay, counting crystal violet-positive cells; format: cell-based
Excerpt: A second series of cationic-aromatic AMPs was designed, and linked (via the N-terminus) to linear anti-biofilm peptides. This created a hybrid anti-biofilm/AMP (AB01), with a Gram-positive specific C-terminal di-peptide (dVal-dPro). A model Gram positive organism that rapidly forms biofilms (M. smegmatis; Ojha, A. and G. F. Hatfull, The role of iron in Mycobacterium smegmatis biofilm formation: the exochelin siderophore is essential in limiting iron conditions for biofilm formation but not for planktonic growth. Mol Microbiol, 2007. 66(2): p. 468-83) was used to assess the inhibition of adhesion/anti-biofilm activity of AB01 & two control AMPs, using a 2 day old biofilm.
The effect of three AMPs on M. smegmatis adhesion was measured on day 0 (data not shown) & after 2 days of biofilm growth, counting crystal violet-positive cells (FIG. 5; see O'Toole, G. A., Microtiter dish biofilm formation assay. J Vis Exp, 2011(47)). Control bacterial adhesion was designated as 100%, and the effect of an added AMP on the cell count was quantified as a percent of the control. The AMPs included Model 01, an AMP of the (RW)n series, (RW)4: [17]; AM11, a cyclized analog of the (RW)n series c(RW)3; and AB01, a hybrid of a cyclized AMP and a linear anti-biofilm peptide.

E. coli [6] = test system: E. coli

Molecule: CCCC[C@H](NC(C)=O)C(=O)N[C@H]1CC(=O)NCCCC[C@@H](C(=O)N[C@@H](Cc2ccccc2)C(=O)N[C@H](C(N)=O)C(C)C)NC(=O)[C@H](Cc2c[nH]c3ccccc23)NC(=O)[C@H](CCCNC(=N)N)NC(=O)[C@@H](Cc2ccc3ccccc3c2)NC(=O)[C@@H]2CCCN2C(=O)[C@H](CCCNC(=N)N)NC1=O [Opt 4] (Ac-[Nle]DRP[d2Nal]RWKFV-NH2; lactam 2-8)
- Membrane Disruption? [1]: Yes, and Agglutination

Molecule: CCCC[C@H](NC(C)=O)C(=O)N[C@H]1CC(=O)NCCCC[C@@H](C(=O)N[C@@H](C(=O)N2CCC[C@@H]2C(N)=O)C(C)C)NC(=O)[C@@H](Cc2ccc3ccccc3c2)NC(=O)[C@H](CCCNC(=N)N)NC(=O)[C@@H](Cc2ccc3ccccc3c2)NC(=O)[C@@H]2CCCN2C(=O)[C@H](CCCNC(=N)N)NC1=O [Opt 1] (Ac-[Nle]DRP[d2Nal]R[d2Nal]K[dV][dP]-NH2; lactam 2-8)
- Membrane Disruption? [1]: Yes, and Agglutination
- relative specificity Gram-positive versus Gram-negative (E. coli [2]): relatively specific for B. subtilis

Molecule: CCCC[C@H](NC(C)=O)C(=O)N[C@H]1CC(=O)NCCCC[C@@H](C(=O)N[C@H](C(=O)N[C@@H](Cc2ccccc2)C(N)=O)C(C)C)NC(=O)[C@H](Cc2c[nH]c3ccccc23)NC(=O)[C@H](CCCNC(=N)N)NC(=O)[C@@H](Cc2ccc3ccccc3c2)NC(=O)[C@@H]2CCCN2C(=O)[C@H](CCCNC(=N)N)NC1=O [Opt 5] (Ac-[Nle]DRP[d2Nal]RWKVF-NH2; lactam 2-8)
- Non-Membrane Activity? [3]: Altered cell
- Membrane Disruption? [1]: Yes, and Agglutination

Molecule: CCCC[C@H](NC(C)=O)C(=O)N[C@H]1CC(=O)NCCCC[C@@H](C(=O)N[C@@H](C(=O)N2CCC[C@@H]2C(N)=O)C(C)C)NC(=O)[C@H](CCCNC(=N)N)NC(=O)[C@@H](Cc2ccc3ccccc3c2)NC(=O)[C@H](CCCNC(=N)N)NC(=O)[C@@H](Cc2ccc3ccccc3c2)NC(=O)[C@@H]2CCCN2C(=O)[C@H](CCCNC(=N)N)NC1=O [Opt 2] (Ac-[Nle]DRP[d2Nal]R[d2Nal]RK[dV][dP]-NH2; lactam 2-9)
- Membrane Disruption? [1]: Yes, and Agglutination
- relative specificity Gram-positive versus Gram-negative (E. coli [2]): relatively specific for B. subtilis

Molecule: Ac-[Nle]DP[d2Nal]RWK[dV][dP]-NH2 (lactam 2-7) [TCAM207]
- RBC casts [4]: no RBC casts were noted
- change in red blood cell (RBC) count, hemoglobin (Hg), and hematocrit (Hct) [4]: slight (statistically insignificant) decreases in all parameters
- time the peptide was stable and remained in the plasma [5]: up to 24 hrs

Molecule: CC[C@H](C)[C@H](NC(=O)CN)C(=O)NCC(=O)N[C@@H](C)C(=O)N[C@H](C(=O)N[C@@H](CC(C)C)C(=O)N[C@@H](CCCCN)C(=O)N[C@H](C(=O)N[C@@H](CC(C)C)C(=O)N[C@H](C(=O)N[C@H](C(=O)NCC(=O)N[C@@H](CC(C)C)C(=O)N1CCC[C@H]1C(=O)N[C@@H](C)C(=O)N[C@@H](CC(C)C)C(=O)N[C@H](C(=O)N[C@@H](CO)C(=O)N[C@@H](Cc1c[nH]c2ccccc12)C(=O)N[C@H](C(=O)N[C@@H](CCCCN)C(=O)N[C@@H](CCCNC(=N)N)C(=O)N[C@@H](CCCCN)C(=O)N[C@@H](CCCNC(=N)N)C(=O)N[C@@H](CCC(N)=O)C(=O)N[C@@H](CCC(N)=O)C(N)=O)[C@@H](C)CC)[C@@H](C)CC)[C@@H](C)O)[C@@H](C)O)C(C)C)C(C)C [Melittin, reference compound]
- Non-Membrane Activity? [3]: None observed
- Membrane Disruption? [1]: Yes
- IC50 B. subtilis (B. subtilis): 20.8 µg/mL (≈ 7.31 µM)
- IC50, E. coli; μg/mL (E. coli [2]; concentration needed to inhibit 50% of bacterial division): 0.7 µg/mL (≈ 0.246 µM)

Molecule: (RW)4 [Model-01, reference compound]
- concentration that prevented adhesion in a 2 day old biofilm (M. smegmatis; 2 day old biofilm): ≥ 100 µM
- concentration that prevented adhesion on day 0 (M. smegmatis): 10 µM

Molecule: CCCC[C@H](NC(C)=O)C(=O)N[C@H]1CC(=O)NCCCC[C@@H](C(=O)N[C@H](Cc2ccccc2)C(=O)N[C@@H](C(N)=O)C(C)C)NC(=O)[C@H](Cc2c[nH]c3ccccc23)NC(=O)[C@H](CCCNC(=N)N)NC(=O)[C@@H](Cc2ccc3ccccc3c2)NC(=O)[C@@H]2CCCN2C(=O)[C@H](CCCNC(=N)N)NC1=O [Opt 3] (Ac-[Nle]DRP[d2Nal]RWK[dF][dV]-NH2; lactam 2-8)
- Non-Membrane Activity? [3]: None observed
- Membrane Disruption? [1]: Yes, and Agglutination

Molecule: CC[C@H](C)[C@H](NC(=O)[C@H](CCCNC(=N)N)NC(=O)[C@H](Cc1ccccc1)NC(C)=O)C(=O)N[C@@H](CCCNC(=N)N)C(=O)N[C@H](C(=O)N[C@@H](CCCNC(=N)N)C(=O)N[C@H](C(=O)N[C@H]1CC(=O)NCCCC[C@@H](C(=O)N[C@@H](C(=O)N2CCC[C@@H]2C(N)=O)C(C)C)NC(=O)[C@H](CCCNC(=N)N)NC(=O)[C@H](Cc2c[nH]c3ccccc23)NC(=O)[C@H](Cc2ccccc2)NC(=O)[C@@H](Cc2ccc3ccccc3c2)NC(=O)[C@H](CCCNC(=N)N)NC(=O)[C@H](CCCNC(=N)N)NC1=O)C(C)C)C(C)C [AB01, Ac-FRIRVRV-c[Asp-RR-dNal(21-FWR-Lys]-dVal-dPro-CONH2] (Ac-FRIRVRVDRR[d2Nal]FWRK[dV][dP]-NH2; lactam 8-15)
- concentration that prevented adhesion in a 2 day old biofilm (M. smegmatis; 2 day old biofilm): 3 to 5 µM
- potency in inhibition of adhesion/anti-biofilm activity relative to Model 01 (M. smegmatis; 2 day old biofilm): ~100 fold
- concentration that prevented adhesion on day 0 (M. smegmatis): 1 µM
- MIC for E. coli (E. coli [6]): 25 µM
